Reference: patent US12528788B2, “Pesticidally active benzene- and azine-amide compounds” (SYNGENTA CROP PROTECTION AG, priority 2018, dated 2026)

How the values were obtained:
Assay type in all cases: in vivo
Euschistus heros = assay: Example B2: Euschistus heros (neotropical brown stink bug), soybean leaves sprayed, N2 nymphs; conditions: 120 h, application rate of 200 ppm, 5 days after infestation, N2 nymphs on soybean leaves, read-out: control in at least one of the two categories (mortality or growth inhibition)
Method: Example B2: Euschistus heros (Neotropical Brown Stink Bug)
Soybean leaves on agar in 24-well microtiter plates were sprayed with aqueous test solutions prepared from 10′000 ppm DMSO stock solutions. After drying the leaves were infested with N2 nymphs. The samples were assessed for mortality and growth inhibition in comparison to untreated samples 5 days after infestation.

Plutella xylostella [1] = assay: Example B14: Plutella xylostella (diamondback moth), 96-well artificial diet; conditions: 216 h, application rate of 500 ppm, 9 days after infestation
Method: Example B14: Plutella xylostella (Diamondback Moth)
96-well microtiter plates containing artificial diet were treated with aqueous test solutions, prepared from 10′000 ppm DMSO stock solutions, by a liquid handling robot. After drying, eggs (˜30 per well) were infested onto a netted lid which was suspended above the diet. The eggs hatch and L1 larvae move down to the diet. The samples were assessed for mortality 9 days after infestation.

Thrips tabaci = assay: Example B12: Thrips tabaci (onion thrips) feeding/contact activity; conditions: foliar, 144 h, application rate of 200 ppm, 6 days after infestation, sunflower leaf discs
Method: Example B12: Thrips tabaci (Onion Thrips) Feeding/Contact Activity
Sunflower leaf discs were placed on agar in 24-well microtiter plates and sprayed with aqueous test solutions prepared from 10′000 ppm DMSO stock solutions. After drying the leaf discs were infested with a Thrips population of mixed ages. The samples were assessed for mortality 6 days after infestation.

Diabrotica balteata = assay: Example B1: Diabrotica balteata (corn root worm), maize sprouts sprayed, L2 larvae; conditions: 96 h, application rate of 200 ppm, 4 days after infestation, L2 larvae on maize sprouts, read-out: control in at least one of the two categories (mortality or growth inhibition)
Method: Example B1: Diabrotica balteata (Corn Root Worm)
Maize sprouts placed onto an agar layer in 24-well microtiter plates were treated with aqueous test solutions prepared from 10′000 ppm DMSO stock solutions by spraying. After drying, the plates were infested with L2 larvae (6 to 10 per well). The samples were assessed for mortality and growth inhibition in comparison to untreated samples 4 days after infestation.

Myzus persicae [2] = assay: Example B8: Myzus persicae (green peach aphid) intrinsic activity; conditions: 120 h, test rate of 12 ppm, 5 days after infestation, sucrose solution
Text: Example B8: Myzus persicae (Green Peach Aphid). Intrinsic Activity
Test compounds prepared from 10′000 ppm DMSO stock solutions were applied by pipette into 24-well microtiter plates and mixed with sucrose solution. The plates were closed with a stretched Parafilm. A plastic stencil with 24 holes was placed onto the plate and infested pea seedlings were placed directly on the Parafilm. The infested plate was closed with a gel blotting paper and another plastic stencil and then turned upside down. The samples were assessed for mortality 5 days after infestation.

Spodoptera littoralis [3] = assay: Example B9: Spodoptera littoralis (Egyptian cotton leaf worm), cotton leaf discs sprayed, L1 larvae; conditions: foliar, 72 h, application rate of 200 ppm, 3 days after infestation, read-out: control in at least one of the three categories (mortality, anti-feedant effect or growth inhibition)
Plutella xylostella [4] = assay: Example B5: Plutella xylostella (diamond back moth), artificial diet, 24-well, eggs; conditions: 192 h, application rate of 200 ppm, 8 days after infestation, read-out: control in at least one of the two categories (mortality or growth inhibition)
Method: Example B5: Plutella xylostella (Diamond Back Moth)
24-well microtiter plates with artificial diet were treated with aqueous test solutions prepared from 10′000 ppm DMSO stock solutions by pipetting. After drying, Plutella eggs were pipetted through a plastic stencil onto a gel blotting paper and the plate was closed with it. The samples were assessed for mortality and growth inhibition in comparison to untreated samples 8 days after infestation.

Chilo suppressalis = assay: Example B4: Chilo suppressalis (striped rice stemborer), artificial diet, L2 larvae; conditions: 144 h, application rate of 200 ppm, 6 days after infestation, read-out: control in at least one of the three categories (mortality, anti-feedant effect or growth inhibition)
Method: Example B4: Chilo suppressalis (Striped Rice Stemborer)
24-well microtiter plates with artificial diet were treated with aqueous test solutions prepared from 10′000 ppm DMSO stock solutions by pipetting. After drying, the plates were infested with L2 larvae (6-8 per well). The samples were assessed for mortality, anti-feeding effect, and growth inhibition in comparison to untreated samples 6 days after infestation. Control of Chilo suppressalis by a test sample is given when at least one of the categories mortality, anti-feedant effect, and growth inhibition is higher than the untreated sample.

Myzus persicae [5] = assay: Example B13: Myzus persicae (green peach aphid), 96-well sucrose solution; conditions: 120 h, application rate of 50 ppm, 5 days after infestation
Text: Example B13: Myzus persicae (Green Peach Aphid)
Test compounds prepared from 10′000 ppm DMSO stock solutions were applied by a liquid handling robot into 96-well microtiter plates and mixed with a sucrose solution. Parafilm was stretched over the 96-well microtiter plate and a plastic stencil with 96 holes was placed onto the plate. Aphids were sieved into the wells directly onto the Parafilm. The infested plates were closed with a gel blotting card and a second plastic stencil and then turned upside down. The samples were assessed for mortality 5 days after infestation.

[6] = system: Frankliniella occidentalis; assay: Example B3: Frankliniella occidentalis (western flower thrips) feeding/contact activity; conditions: foliar, 168 h, application rate of 200 ppm, 7 days after infestation, sunflower leaf discs, mixed ages
Method: Example B3: Frankliniella occidentalis (Western Flower Thrips) Feeding/Contact Activity
Sunflower leaf discs were placed on agar in 24-well microtiter plates and sprayed with aqueous test solutions prepared from […] stock solutions. After drying the leaf discs were infested with a Frankliniella population of mixed ages. The samples were assessed for mortality 7 days after infestation.

Spodoptera littoralis [7] = assay: Example B10: Spodoptera littoralis (Egyptian cotton leaf worm), uptake by lettuce roots from agar; conditions: 144 h, test rate of 12.5 ppm, 6 days after infestation, lettuce grown on treated agar, read-out: control in at least one of the three categories (mortality, anti-feeding, or growth inhibition)
Text: Example B10: Spodoptera littoralis (Egyptian Cotton Leaf Worm)
Test compounds were applied by pipette from 10′000 ppm DMSO stock solutions into 24-well plates and mixed with agar. Lettuce seeds were placed onto the agar and the multi well plate was closed by another plate which contained also agar. After 7 days the compound was absorbed by the roots and the lettuce grew into the lid plate. The lettuce leaves were then cut off into the lid plate. Spodoptera eggs were pipetted through a plastic stencil onto a humid gel blotting paper and the lid plate was closed with it. The samples were assessed for mortality, anti-feedant effect and growth inhibition in comparison to untreated samples 6 days after infestation.

Tetranychus urticae = assay: Example B11: Tetranychus urticae (two-spotted spider mite) feeding/contact activity; conditions: foliar, 192 h, application rate of 200 ppm, 8 days after infestation, bean leaf discs, mixed population (mobile stages)
Method: Example B11: Tetranychus urticae (Two-Spotted Spider Mite): Feeding/Contact Activity
Bean leaf discs on agar in 24-well microtiter plates were sprayed with aqueous test solutions prepared from 10′000 ppm DMSO stock solutions. After drying the leaf discs were infested with a mite population of mixed ages. The samples were assessed for mortality on mixed population (mobile stages) 8 days after infestation.

Myzus persicae [8] = assay: Example B7: Myzus persicae (green peach aphid) systemic activity; conditions: 144 h, test rate of 24 ppm, 6 days after placing seedlings into test solutions, pea seedlings
Method: Example B7: Myzus persicae (Green Peach Aphid) Systemic Activity
Roots of pea seedlings infested with an aphid population of mixed ages were placed directly into aqueous test solutions prepared from 10′000 DMSO stock solutions. The samples were assessed for mortality 6 days after placing seedlings into test solutions.

Myzus persicae [9] = assay: Example B6: Myzus persicae (green peach aphid) feeding/contact activity; conditions: foliar, 144 h, application rate of 200 ppm, 6 days after infestation, sunflower leaf discs
Method: Example B6: Myzus persicae (Green Peach Aphid) Feeding/Contact Activity
Sunflower leaf discs were placed onto agar in a 24-well microtiter plate and sprayed with aqueous test solutions prepared from 10′000 ppm DMSO stock solutions. After drying, the leaf discs were infested with an aphid population of mixed ages. The samples were assessed for mortality 6 days after infestation.

CC(c1nccnc1-c1ncccn1)N(CC1CC1)C(=O)c1cc(C(F)(F)F)cc(C(F)(F)F)c1 (stereo not shown) [Compound P5, N-(cyclopropylmethyl)-N-[1-(3-pyrimidin-2-ylpyrazin-2-yl)ethyl]-3,5-bis(trifluoromethyl)benzamide]
≥ 80%: percent control (mortality or growth inhibition) at 200 ppm (Euschistus heros) | mortality at 500 ppm (Plutella xylostella [1]) | mortality at 200 ppm (Thrips tabaci) | percent control (mortality or growth inhibition) at 200 ppm (Diabrotica balteata) | mortality at 12 ppm (Myzus persicae [2]) | percent control (mortality, anti-feedant effect or growth inhibition) at 200 ppm (Spodoptera littoralis [3]) | percent control (mortality or growth inhibition) at 200 ppm (Plutella xylostella [4]) | percent control (mortality, anti-feedant effect or growth inhibition) at 200 ppm (Chilo suppressalis) | mortality at 50 ppm (Myzus persicae [5])

CC(NC(=O)c1cc(SC(F)(F)F)cc(C(F)(F)F)c1)c1nccnc1-c1ncccn1 (stereo not shown) [Compound P19, N-[1-(3-pyrimidin-2-ylpyrazin-2-yl)ethyl]-3-(trifluoromethyl)-5-(trifluoromethylsulfanyl)benzamide]
≥ 80%: mortality at 500 ppm (Plutella xylostella [1]) | percent control (mortality or growth inhibition) at 200 ppm (Diabrotica balteata) | mortality at 12 ppm (Myzus persicae [2]) | percent control (mortality, anti-feedant effect or growth inhibition) at 200 ppm (Spodoptera littoralis [3]) | mortality at 200 ppm [6] | percent control (mortality or growth inhibition) at 200 ppm (Plutella xylostella [4]) | percent control (mortality, anti-feedant effect or growth inhibition) at 200 ppm (Chilo suppressalis) | mortality at 50 ppm (Myzus persicae [5])

CC(NC(=O)c1cc(OC(F)F)cc(C(F)(F)F)c1)c1nccnc1-c1ncccn1 (stereo not shown) [Compound P23, 3-(difluoromethoxy)-N-[1-(3-pyrimidin-2-ylpyrazin-2-yl)ethyl]-5-(trifluoromethyl)benzamide]
≥ 80%: percent control (mortality, anti-feeding or growth inhibition) at 12.5 ppm (Spodoptera littoralis [7]) | mortality at 200 ppm (Tetranychus urticae) | percent control (mortality or growth inhibition) at 200 ppm (Euschistus heros) | mortality at 24 ppm (Myzus persicae [8]) | mortality at 500 ppm (Plutella xylostella [1]) | percent control (mortality or growth inhibition) at 200 ppm (Diabrotica balteata) | mortality at 12 ppm (Myzus persicae [2]) | percent control (mortality, anti-feedant effect or growth inhibition) at 200 ppm (Spodoptera littoralis [3]) | percent control (mortality or growth inhibition) at 200 ppm (Plutella xylostella [4]) | percent control (mortality, anti-feedant effect or growth inhibition) at 200 ppm (Chilo suppressalis) | mortality at 200 ppm (Myzus persicae [9]) | mortality at 50 ppm (Myzus persicae [5])

CC(c1nccnc1-c1ncccn1)N(CC1CC1)C(=O)c1cc(OC(F)F)cc(C(F)(F)F)c1 (stereo not shown) [Compound P24, N-(cyclopropylmethyl)-3-(difluoromethoxy)-N-[1-(3-pyrimidin-2-ylpyrazin-2-yl)ethyl]-5-(trifluoromethyl)benzamide]
≥ 80%: mortality at 200 ppm (Tetranychus urticae) | percent control (mortality or growth inhibition) at 200 ppm (Diabrotica balteata) | mortality at 12 ppm (Myzus persicae [2]) | percent control (mortality, anti-feedant effect or growth inhibition) at 200 ppm (Spodoptera littoralis [3]) | percent control (mortality or growth inhibition) at 200 ppm (Plutella xylostella [4]) | percent control (mortality, anti-feedant effect or growth inhibition) at 200 ppm (Chilo suppressalis) | mortality at 200 ppm (Myzus persicae [9]) | mortality at 50 ppm (Myzus persicae [5])
